Patent US8580995B2, “Lysine-based prodrugs of aspartyl protease inhibitors and processes for their preparation” (priority 2005, dated 2013)

Test: Bioavailability: plasma concentration after single oral administration to rats
Assay type: in vivo, male Sprague-Dawley rats
Settings: for AUC: 50 mg/Kg po, 3 rats; for Detection of the administered phosphate compound itself in the blood samples / Delivery of parent drug (PL-100, PL-337) by aqueous dosing compared to non-aqueous formulations of PL-100 and PL-337: 50 mg/kg po; for Detection of the administered phosphate compound itself in the blood samples: delivered as aqueous solutions, HPLC-MS of plasma; for Delivery of parent drug (PL-100, PL-337) by aqueous dosing compared to non-aqueous formulations of PL-100 and PL-337: rats
Procedure: To assess the extent of in vivo cleavage of the phosphate group from the putative compounds, PL-100, PL-462 (based on PL-100), PL-337 and PL-515 (based on PL-337) compounds were administered per os (po) (50 mg/kg) to male Sprague-Dawley rats and their plasma concentration measured at different time intervals post-administration. All test articles (PL-100, PL-462, PL-337 and PL-515) were prepared in different vehicle at the final concentration of 25 mg/mL. The vehicle composition is as follows: (1) 20% ethanol; 50% propylene glycol; 0.05% w/v Tween 20 and water (Mix); (2) PBS buffer (PBS). Test articles were administered to male Sprague-Dawley rats at a single oral dose of 50 mg/kg. Each article was tested in three rats. Blood samples (0.2-0.3 mL) were collected at the post-dose time of 10, 20, 40, 60, 120, 180 and 360 minutes. The harvested blood was centrifuged to isolate plasma. The resulting plasma was separated and stored at −70° C. Plasma samples together with standards and quality control samples were treated to precipitate proteins, then analyzed by HPLC-MS, for the presence of PL-462, PL-100, PL-515 and PL-337.

[1] = vehicle Mix (20% ethanol; 50% propylene glycol; 0.05% w/v Tween 20 and water)
[2] = vehicle PBS, parent drug (PL-100 or PL-337) detected in plasma after dosing the phosphate compound

AUC [1] | Compound | AUC [2] | Detection of the administered phosphate compound itself in the blood samples | Delivery of parent drug (PL-100, PL-337) by aqueous dosing compared to non-aqueous formulations of PL-100 and PL-337
0.675 ± 0.171 μg/hr*ml | COC(=O)N[C@H](C(=O)NCCCC[C@@H](CO)N(CC(C)C)S(=O)(=O)c1ccc(N)cc1)C(c1ccccc1)c1ccccc1 [PL-100, (1S,5S)-(1-{5-[(4-amino-benzenesulfonyl)-isobutyl-amino]-6-hydroxy-hexylcarbamoyl}-2,2-diphenyl-ethyl)-carbamic acid methyl ester] |  |  | 
 | COC(=O)N[C@H](C(=O)NCCCC[C@@H](COP(=O)(O)O)N(CC(C)C)S(=O)(=O)c1ccc(N)c(F)c1)C(c1ccccc1)c1ccccc1 [PL-515, (1S,5S)-(1-{5-[(4-amino-3-fluoro-benzenesulfonyl)-isobutyl-amino]-6-phosphonooxy-hexylcarbamoyl}-2,2-diphenyl-ethyl)-carbamic acid methyl ester] | 1.075 ± 0.625 μg/hr*ml | None of the PL-462 and PL-515 compounds, delivered as aqueous solutions, are detected in the blood samples | equivalent to slightly superior delivery
1.180 ± 0.196 μg/hr*ml | COC(=O)N[C@H](C(=O)NCCCC[C@@H](CO)N(CC(C)C)S(=O)(=O)c1ccc(N)c(F)c1)C(c1ccccc1)c1ccccc1 [PL-337, (1-{5-[(4-amino-3-fluoro-benzenesulfonyl)-isobutyl-amino]-6-hydroxy-hexylcarbamoyl}-2,2-diphenyl-ethyl)-carbamic acid methyl ester] |  |  | 
 | COC(=O)N[C@H](C(=O)NCCCC[C@@H](COP(=O)([O-])[O-])N(CC(C)C)S(=O)(=O)c1ccc(N)cc1)C(c1ccccc1)c1ccccc1.[Na+].[Na+] [PL-462, (1S,5S)-(1-{5-[(4-amino-benzenesulfonyl)-isobutyl-amino]-6-phosphonooxy-hexylcarbamoyl}-2,2-diphenyl-ethyl)-carbamic acid methyl ester sodium salt] | 0.816 ± 0.295 μg/hr*ml | None of the PL-462 and PL-515 compounds, delivered as aqueous solutions, are detected in the blood samples | equivalent to slightly superior delivery
